This is an account of results in ChEMBL document CHEMBL1201862, “PubChem BioAssay data set” (2004).

Common to all, as to experiment: NCI-60 cell line screen, 48 h
Test [1] concerns DMS-114.
Test [2] deals with DMS-273.
Test [3] relates to HOP-18.
Test [4] relates to M19-MEL.
For test [5], the system named is SNB-78.
Test [6] has as its system XF498.
Test [7] deals with KM-20L2.
The subject of test [8] is LXFL 529.
The subject of test [9] is RXF 631.

The structures appear in SMILES notation.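 Protocol summary: plate cells (96-well), add compound at 5 concentrations, incubate 48 h, interpolate endpoints linearly. Here, GI50 denotes the concentration required for 50% inhibition of growth.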 Calls of active or inactive are those of the source. Rule as the data show it: active = GI50 up to about 1.1 µM and inactive = higher. Some results are limits rather than exact numbers.

Turning to `c1cnc2c(c1)-n1cccc1C1(CCSC1)NN2` (stereo not given), the GI50 in test [1] was > 100 µM (inactive); in test [2], > 100 µM (inactive); in test [3], 28.4 µM (inactive); in test [4], > 100 µM (inactive); in test [5], > 100 µM (inactive); in [6], > 100 µM (inactive).

Regarding `O=C(O)CN(CC(=O)O)Cc1cc(C#Cc2ccc(C#Cc3ccccc3)cc2)cc(CN(CC(=O)O)CC(=O)O)n1`, the GI50 was 13.8 µM (inactive) in test [1]; 7.66 µM (inactive) in test [2]; 33.4 µM (inactive) in test [3]; 17 µM (inactive) in test [7]; 27.2 µM (inactive) in test [8]; 17.5 µM (inactive) in [4]. Besides, the GI50 is 44.3 µM (inactive) in test [5] and 20.5 µM (inactive) in [6].

`CN(C)C(=S)/N=c1\ssc(=S)n1Cc1cccs1`: the GI50 in test [1] was 2.15 µM (inactive); in test [3] it was 8.89 µM (inactive); in [7], 1.87 µM (inactive); in test [8], 4.75 µM (inactive); in test [4], 3.16 µM (inactive); in test [5], 6.68 µM (inactive).

With `COC(=O)C(Cc1nc2ccccc2nc1O)C(=O)C(=O)Nc1ccc(OC)cc1[N+](=O)[O-]` (stereo not given), the GI50 in test [7], in [8], in test [4], in test [5] and in test [6] was > 100 µM (inactive) throughout.

Regarding `CC(=O)Nc1ccc(/C=C/C(=O)c2sc(-n3nc(-c4ccccc4)cc3-c3ccccc3)nc2C)cc1`, the GI50 in [1] is 74.8 µM (inactive); in test [2] it was > 10 µM (inactive); in test [3], > 10 µM (inactive); in test [7], > 10 µM (inactive); in [8], > 10 µM (inactive); in [4] it was > 10 µM (inactive). The GI50 in test [9] and in test [5] was > 10 µM (inactive) throughout.

Regarding `NCC(=O)OCN1C(=O)C2C3C=CC(C2C1=O)C1C2C(=O)N(COC(=O)CN)C(=O)C2C31` (stereo not given), the GI50 in test [1] is 20.9 µM (inactive); in [2], 18.2 µM (inactive); in [3] it was 25.6 µM (inactive); in test [7], 24.3 µM (inactive); in test [8], 22.7 µM (inactive); in test [4], 24.8 µM (inactive). For the same compound, the results for the GI50 in test [5] and in test [6] were 42 µM (inactive) and 17.9 µM (inactive), respectively.

Consider `Cc1ccc(NC(=O)CC(=O)N2N=C(N(CCC#N)c3cccc(C)c3)CC2c2ccccc2)cc1` (stereo not given), for which the GI50 in test [1], in test [2], in [3], in test [7], in test [8] and in [4] was > 100 µM (inactive) throughout. The GI50 in test [5] is > 100 µM (inactive).

As to `CCOC(=O)N[C@@H]1C2CC(=O)C(O2)[C@@H]1OC` (stereo not given in full), the GI50 in test [3], in test [7], in [4] and in test [5] was > 100 µM (inactive) each time.

With `NC(CCC(=O)Nc1ccc(O)cc1)C(=O)O` (stereo not given), the GI50 in test [1], in test [2], in [3], in test [7], in test [8] and in [5] was > 100 µM (inactive) throughout. Moreover, the GI50 in [6] is > 100 µM (inactive).

On to `CCNC(=O)COc1ccc(Br)cc1Br`, for which the GI50 in [1], in test [2], in test [3], in test [7], in test [8] and in [4] was > 100 µM (inactive) each time. The GI50 in test [9] is 69.7 µM (inactive); in test [5], > 100 µM (inactive).

With `Cc1c(Cl)ccc2c1NC(=O)C2(O)CC(=O)c1ccc(Cl)cc1` (stereo not given), the GI50 was 11.7 µM (inactive) in [1]; 48.2 µM (inactive) in [2]; > 70.8 µM (inactive) in test [3]; > 100 µM (inactive) in test [7]; > 38.9 µM (inactive) in test [8]; 6.62 µM (inactive) in [4]. The GI50 was 71.1 µM (inactive) in test [9] and > 96.6 µM (inactive) in test [5].

With `N#CC1(c2nc3ccccc3o2)C(=O)C(=O)N(c2ccc(Cl)c(Cl)c2)C(=O)C1=O`, the GI50 in test [2] is > 100 µM (inactive); in test [3], > 100 µM (inactive); in test [7] it was > 100 µM (inactive); in [8], 58.1 µM (inactive); in [5] it was > 100 µM (inactive); in test [6], > 100 µM (inactive).

Take `OCC1CC2C=CCC(C2)C1` (stereo not given): the GI50 in test [1], in test [2], in test [3], in test [7], in [8] and in [4] was > 100 µM (inactive) throughout. The GI50 in [5] and in test [6] was > 100 µM (inactive) each time.

Regarding `C=CCC12CC(=O)CCC1c1ccc(OC)cc1C2=O` (stereo not given), the GI50 in [1], in test [2], in test [3], in test [7], in test [8] and in test [4] was > 100 µM (inactive) each time. The GI50 in test [5] was > 100 µM (inactive).

As for `Cc1cc2c(cc1CO)N1Cc3cc(C)c(CO)cc3N(C2)C1`, the GI50 in test [1], in test [2], in test [3], in [7], in test [8] and in [4] was > 100 µM (inactive) in each case. Also, the GI50 in test [5] and in [6] was > 100 µM (inactive) each time.

Turning to `CC(=O)C1C(=O)C(=O)N(c2ccccc2N2C(=O)C(=O)C(C(C)=O)C2=O)C1=O` (stereo not given), the GI50 in test [1], in [3], in test [7], in test [8], in [4] and in [9] was > 100 µM (inactive) in each case. Moreover, in test [5], the GI50 was > 100 µM (inactive).

In the case of `Cc1ccc(NC(=O)C(=O)C(C#N)c2nc(-c3ccc(-c4ccccc4)cc3)cs2)c(C)c1` (stereo not given), the GI50 in [1] was > 100 µM (inactive); in test [2], 39.6 µM (inactive); in test [3], > 100 µM (inactive); in [7], > 100 µM (inactive); in test [8], > 100 µM (inactive); in test [4] it was > 100 µM (inactive). In test [5], the GI50 was > 100 µM (inactive).

As for `CC(C)(C)c1cc(COc2c3sc(=S)sc3c(OCc3cc(C(C)(C)C)cc(C(C)(C)C)c3)c3sc(=S)sc23)cc(C(C)(C)C)c1`, the GI50 in [2], in [3], in test [7], in test [8], in [4] and in test [6] was > 100 µM (inactive) each time.

Turning to `O=C1C(O)=C(CN(CCCl)CCCl)C(=O)c2ccccc21`, the GI50 in test [7] was 28.7 µM (inactive); in test [8], 48.3 µM (inactive); in test [4], 54.6 µM (inactive); in test [9] it was 87.9 µM (inactive); in test [5], 70.8 µM (inactive); in test [6], > 100 µM (inactive).

As to `COc1cc(/C=C\c2ccc(SC)cc2)cc(OC)c1OC`, the GI50 in test [1] is < 0.0202 µM (active); in test [2], 0.0258 µM (active); in test [3], 0.0453 µM (active); in test [7], 0.0182 µM (active); in [8] it was < 0.0221 µM (active); in test [4], 0.0278 µM (active). For the same compound, the GI50 in test [5] is 0.0452 µM (active); in test [6], 0.0908 µM (active).

In the case of `CC1CC2(CC[C@@H]1O)OCCO2` (stereo not given in full), the GI50 in [2], in [8], in test [4], in [9], in test [5] and in [6] was > 100 µM (inactive) in each case.

Turning to `COc1nc(NC2OCC(O)C(O)C2O)c(NC2OCC(O)C(O)C2O)c(=O)n1C` (stereo not given), the GI50 in [1], in test [2], in test [3], in [7], in test [8] and in test [4] was > 100 µM (inactive) in each case. In addition, the GI50 in test [5] and in test [6] was > 100 µM (inactive) in each case.

On to `COCN(C)c1nc(N(C)C)nc(N(C)C)n1`, for which the GI50 is > 100 µM (inactive) in test [1]; > 100 µM (inactive) in test [2]; 89.3 µM (inactive) in [3]; > 100 µM (inactive) in [7]; 81.5 µM (inactive) in [8]; > 100 µM (inactive) in test [4]. In [5], the GI50 is > 100 µM (inactive).

With `CC(C)N1C(C)[C@@H](c2ccccc2)O[P@@]1(=O)CC1=CCCCC1` (stereo not given in full), the GI50 is 51.4 µM (inactive) in test [1]; > 100 µM (inactive) in test [3]; > 100 µM (inactive) in test [7]; > 100 µM (inactive) in [8]; > 100 µM (inactive) in test [4]; > 100 µM (inactive) in test [6].

Take `C[C@]12CCC[C@H](Cl)C1(O)C[C@H](C(=O)O)CC2` (stereo not given in full): the GI50 in test [1], in test [2], in [3], in test [7], in test [8] and in [4] was > 100 µM (inactive) each time. Also, the GI50 in [5] and in test [6] was > 100 µM (inactive) in each case.

On to `COc1ccc(N/N=C(\CCN(C)C)c2ccccc2)cc1`, for which the GI50 in test [1] is 10.9 µM (inactive); in test [2] it was 3 µM (inactive); in [3] it was 22.1 µM (inactive); in [7], 0.489 µM (active); in test [8], 1.6 µM (inactive); in test [4], 3.82 µM (inactive). Further, in test [5], the GI50 is 12.8 µM (inactive).
